Consider 6 molecules from patent US6764829B2, “Nucleoside hydrolase and nucleoside phosphorylase detection kits, dipsticks and substrates” (Albert Einstein College of Medicine of Yeshiva University, priority 1996, dated 2004).

Series [1] has as its target T1, AMP nucleosidase (Escherichia coli, UniProt P0AE12). The conditions noted are these: purine substrate; cited from earlier work.
Series [2] deals with T2, IAG-nucleoside hydrolase (Trypanosoma brucei, UniProt Q57ZL6).
T2 sequence (Q57ZL6 1-327): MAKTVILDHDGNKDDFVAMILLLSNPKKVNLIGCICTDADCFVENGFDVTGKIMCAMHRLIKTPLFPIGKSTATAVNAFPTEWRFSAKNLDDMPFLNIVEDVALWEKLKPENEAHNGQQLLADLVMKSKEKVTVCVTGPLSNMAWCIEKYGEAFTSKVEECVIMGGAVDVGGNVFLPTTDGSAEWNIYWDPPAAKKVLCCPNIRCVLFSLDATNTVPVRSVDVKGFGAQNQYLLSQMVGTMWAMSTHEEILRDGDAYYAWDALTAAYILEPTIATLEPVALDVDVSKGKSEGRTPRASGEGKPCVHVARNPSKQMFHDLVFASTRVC
As to the kind of experiment: Kinetic parameters with nitrophenylriboside and purine substrate (Table 1). It counts as biochemical. The text has this: (§1) In this Example kinetic parameters for different enzymes were compared using nitrophenylriboside or a purine substrate. […] The E. coli and bovine spleen enzymes tested were ineffective in hydrolysing the substrate. The striking ability of one of the protozoan parasite enzymes to hydrolyse the substrate provides the basis for an assay for the protozoan parasites (see Example 22).

Series [3] has as its target T3, IU-nucleoside hydrolase (Crithidia fasciculata, UniProt Q27546).
T3 sequence (Q27546 1-315): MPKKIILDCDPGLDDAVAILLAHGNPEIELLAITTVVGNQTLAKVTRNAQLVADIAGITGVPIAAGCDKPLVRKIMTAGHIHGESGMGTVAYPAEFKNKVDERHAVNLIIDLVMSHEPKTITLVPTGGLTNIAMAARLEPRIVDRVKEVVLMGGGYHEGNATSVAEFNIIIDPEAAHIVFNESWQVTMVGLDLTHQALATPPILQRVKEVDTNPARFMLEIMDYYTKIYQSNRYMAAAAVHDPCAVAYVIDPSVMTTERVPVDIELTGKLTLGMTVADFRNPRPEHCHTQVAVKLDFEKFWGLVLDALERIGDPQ
The description is as above. It counts as biochemical.
Excerpt: as §1

Series [4] deals with GI-nucleoside hydrolase. Described as above. It counts as biochemical, Crithidia fasciculata.
Excerpt: as §1

Series [5] addresses T1, AMP nucleosidase. As to the kind of experiment: Kinetic parameters with nitrophenylriboside 5-phosphate and purine substrate (Table 1). The series is classed as biochemical, E coli. The settings on record: summary of Table 1.
Excerpt: as §1

The test system of series [6] is blood from mice infected with Trypanosoma cruzi. As to the kind of experiment: Rate of hydrolysis of nitrophenyl riboside with control or infected mouse blood. The series is classed as biochemical. The settings on record: for rate of hydrolysis: 0.24 mM substrate, 50 mM HEPES pH 8.0, 30° C., 400 nm. The procedure: The utility of nitrophenylriboside as a substrate for detecting protozoan infections using the presence of nucleoside hydrolases was tested using blood from mice infected with Trypanosoma cruzi, the causitive agent of Chagas disease (Table 2). […] The values obtained from the assay from the infected mice were strikingly elevated above those of the uninfected controls.

In series [7] the target is T3, IU-nucleoside hydrolase. As to the kind of experiment: Comparison of β-D-ribofuranoside substrates with IU-nucleoside hydrolase (Table 3). It counts as biochemical. The procedure:
(§2) The enzymes used were highly purified samples from Crithidia fasciculata (IU-nucleoside hydrolase) and Trypanosoma brucei brucei (IAG-nucleoside hydrolase), available as stock solutions of approximately 20 mg protein/mL.
(§3) Each reaction was conducted in a quartz cuvette with a 1 cm path length, placed in the observation chamber of a UV spectrophotometer, and in a total reaction volume of 600 μL. The temperature was adjusted by use of a circulating water bath, set so that the cuvette temperature equilibrated to 30° C. in about 5 minutes.
(§4) The β-D-ribofuranoside substrates were dissolved in aqueous buffer: 50 mM CHES for reactions at pH 10, 50 mM HEPES for reactions at pH 8. […] For the remaining reactions catalysed by IAG hydrolase, a single substrate concentration of between 100 and 300 μM was used.
(§5) The absorbance of each reaction mixture was monitored at or near the absorption maximum for the phenolic aglycon (as shown in Table 3). Monitoring began 5-10 minutes before the enzyme was added to determine if the substrate was stable under the reaction conditions.
(§6) Data were fitted to the Michaelis-Menton equation using kaleidagraph, and the resulting kinetic parameters along with other relevant data are summarized in Table 3.

The target of series [8] is T2, IAG-nucleoside hydrolase. Put plainly: Comparison of β-D-ribofuranoside substrates with IAG-nucleoside hydrolase (Table 3). The series is classed as biochemical. The conditions noted are these: for IAG NH rate: at 200 μM substrate. The procedure: as §2, §3, §4, §5, §6
The test system of series [9] is Giardia intestinalis (Portland 1 strain). Put plainly: Hydrolysis of substrates by Giardia intestinalis supernatants. The series is classed as biochemical. The conditions noted are these: 0.24 mM substrate, 50 mM HEPES pH 8. The procedure:
Giardia intestinalis (Portland 1 strain) was grown for 2 days in TYI-33 medium supplemented with 5 mM arginine, harvested and washed. A suspension containing 2.91×10^8 cells of Giardia intestinalis in 1 mL of aqueous HEPES buffer (40 mM. pH 7) was mixed with 1 mL of aqueous HEPES buffer (40 mM, pH 7) containing 0.1 mM protease inhibitor E-64 and sonicated (Branson sonicator, duty cycle 40, output 2.5), for 2-3 min in ice. The suspension was then centrifuged in a Beckman microfuge for 10 mins at 4° C., and the supernatant decanted.
A second suspension of 2.91×10^8 cells of Giardia intestinalis in 1 mL of aqueous HEPES buffer (40 mM, pH 7) was mixed with 1 mL of 0.5% aqueous Triton X-100, left at 4° C. overnight, and the supernatant was decanted.
Aliquots (between 2 and 100 μL) of each of these supernatants were made up to a volume of 1 mL of water containing 50 mM HEPES buffer at pH 8, 0.24 mM 4-nitrophenyl β-D-ribofuranoside or 4-pyridyl β-D-ribofuranoside. The release of the aglycon was monitored by absorption spectrometry at 400 nm or 253 nm, respectively.
Protein was determined by Lowry method (ie Folin reaction).

A further series concerns T. vaginalis. As to the kind of experiment: Hydrolysis of substrates by T. vaginalis extract. The series is classed as biochemical. The settings on record: Triton X-100 extract; determined as in Example 24. The method, then:
T. vaginalis was grown for 2 days in TYM medium, harvested, and washed. […] The ability of the extract to hydrolyse substrates was determined as in Example 24. For 4-nitrophenyl β-D-ribofuranoside, the activity was 165 nmoles.min^−1 per 10^8 cells, corresponding to an activity for the enzyme of 9 nmoles.min^−1.(mg protein)^−1. For 4-pyridyl β-D-ribofuranoside, the activity was 74 nmoles.min^−1 per […] corresponding to an activity for the enzyme of 4 nmoles.min^−1.(mg protein)^−1.

Series [10] concerns the target T4, Purine nucleoside phosphorylase (Bos taurus, UniProt P55859).
T4 sequence (P55859 1-289): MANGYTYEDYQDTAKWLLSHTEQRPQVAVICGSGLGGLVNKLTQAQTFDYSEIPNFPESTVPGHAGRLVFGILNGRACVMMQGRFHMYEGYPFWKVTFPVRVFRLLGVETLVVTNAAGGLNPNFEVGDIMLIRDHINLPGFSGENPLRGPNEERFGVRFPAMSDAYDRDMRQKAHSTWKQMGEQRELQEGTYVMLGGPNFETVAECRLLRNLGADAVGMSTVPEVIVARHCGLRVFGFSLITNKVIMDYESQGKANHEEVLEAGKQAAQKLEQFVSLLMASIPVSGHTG
As to the kind of experiment: Kinetic parameters (phosphorolysis) with nitrophenylriboside and purine substrate (Table 1). Details: The E. coli and bovine spleen enzymes tested; from tissue; host or cells: bovine spleen. It counts as biochemical, bovine.
Excerpt: as §1

A short description of series [11]: Stability of substrate under the reaction conditions before enzyme was added. The settings on record: pH 10, 30° C., monitored 5-10 minutes before the enzyme was added. It counts as physicochemical. The method, then:
as §5

Series [12] deals with GI-nucleoside hydrolase. The conditions noted are these: purine substrate; cited from earlier work.
Series [13] deals with T3, IU-nucleoside hydrolase. The conditions noted are these: purine substrate; cited from earlier work.
In series [14] the target is T2, IAG-nucleoside hydrolase. The conditions noted are these: purine substrate; cited from earlier work.
In series [15] the target is T4, Purine nucleoside phosphorylase. Details: bovine spleen enzymes tested; from tissue; host or cells: bovine spleen. The settings on record: purine substrate; cited from earlier work.
Substrate in series [16]: O=[N+]([O-])c1ccc(O[C@@H]2O[C@H](CO)[C@@H](O)[C@H]2O)cc1
As to the kind of experiment: Kinetic parameters with nitrophenylriboside and purine substrate (Table 1). The series is classed as biochemical, Trypanosoma brucei brucei. The conditions noted are these: other: nitrophenylriboside as substrate, pH 8.0 in 50 mM HEPES, 30° C.
Excerpt: as §1

Substrate in series [17]: O=[N+]([O-])c1ccc(O[C@@H]2O[C@H](CO)[C@@H](O)[C@H]2O)cc1
As to the kind of experiment: Comparison of β-D-ribofuranoside substrates with IAG-nucleoside hydrolase (Table 3). It counts as biochemical, Trypanosoma brucei brucei. The conditions noted are these: other: At pH 10, 30.0 °C. The procedure: as §2, §3, §4, §5, §6

Substrate in series [18]: OC[C@H]1O[C@@H](Oc2ccncc2)[C@H](O)[C@@H]1O
Described as above. The conditions noted are these: other: At pH 10, 30.0 °C. It counts as biochemical, Trypanosoma brucei brucei. The method, then: as §2, §3, §4, §5, §6

[19] abbreviates: kcat/Km for nitrophenylriboside to that for inosine.
The mark [20] stands for this setting: nitrophenylriboside as substrate, pH 8.0 in 50 mM HEPES, 30° C.
Where [21] appears, read: listed as 2-(5-nitropyridyl) riboside.

Where two headings read alike, the source gives them in different places.

T1 sequence (P0AE12 whole entry): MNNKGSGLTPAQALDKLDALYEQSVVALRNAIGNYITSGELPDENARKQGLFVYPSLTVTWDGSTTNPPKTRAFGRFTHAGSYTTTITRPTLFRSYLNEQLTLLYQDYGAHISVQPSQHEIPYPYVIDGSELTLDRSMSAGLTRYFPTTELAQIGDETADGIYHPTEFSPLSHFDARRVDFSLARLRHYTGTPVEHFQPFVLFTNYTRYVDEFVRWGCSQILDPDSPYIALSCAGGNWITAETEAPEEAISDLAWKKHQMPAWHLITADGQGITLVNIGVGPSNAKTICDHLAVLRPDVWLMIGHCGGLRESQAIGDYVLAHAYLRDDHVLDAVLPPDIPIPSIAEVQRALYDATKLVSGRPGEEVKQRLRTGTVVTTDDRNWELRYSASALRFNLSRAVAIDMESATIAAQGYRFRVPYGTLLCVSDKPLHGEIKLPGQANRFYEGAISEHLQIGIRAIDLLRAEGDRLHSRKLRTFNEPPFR

Broadly, the Km is the substrate concentration at which the rate is half of its maximum. The kcat is the maximal rate divided by the concentration of active sites. For the molecule `Nc1ncnc2c1ncn2[C@@H]1O[C@H](COP(=O)(O)O)[C@@H](O)[C@H]1O` [AMP], on AMP nucleosidase [1], the Km was 150 µM and the kcat was 27 s⁻¹.

As to `O=[N+]([O-])c1ccc(O[C@@H]2O[C@H](CO)[C@@H](O)[C@H]2O)cc1` [Example 1, p-nitrophenyl β-D-ribofuranoside], the kcat/Km ratio is given as 8 × 10^−4 at IAG-nucleoside hydrolase [2] (setting [19]), 54 at IU-nucleoside hydrolase [3] (setting [19]), 4 × 10^−5 in the series on GI-nucleoside hydrolase [4] (kcat/Km for nitrophenylriboside to that for guanosine) and 1 × 10^−6 in series [10] (setting [19]). Moreover, the “substrate quality in words” value is recorded as “relatively poor” on IAG-nucleoside hydrolase [2] (summary of Table 1); “good substrate” on IU-nucleoside hydrolase [3] (summary of Table 1); “ineffective” on AMP nucleosidase [5]; “good substrates” at IU-nucleoside hydrolase [7]; “particularly good substrate” on IU-nucleoside hydrolase [7] (listed as p-nitrophenylriboside); “ineffective” in [10] (summary of Table 1). For the same molecule, the Km in the series with GI-nucleoside hydrolase [4] (setting [20]) was determined as 468 µM. In addition, the kcat in the series with GI-nucleoside hydrolase [4] (setting [20]) amounted to 0.07 s⁻¹. In addition, in series [6] (blood lysate prepared from one microliter of infected blood), the “detection of nucleoside hydrolase in words” value is “readily detects the presence of the nucleoside hydrolase”. Further, the rate of hydrolysis in series [6] (mouse blood infected, T cruzi var Brazil) is 4.6 ± 0.5 (3) pmol/min/mg; in series [6] (mouse blood infected, T cruzi var Tulahuen), 3.9 ± 0.5 (4) pmol/min/mg; in [6] (uninfected control mouse blood) it was 0.7 ± 0.8 (11) pmol/min/mg. Also, the “IAG NH rate” value at IAG-nucleoside hydrolase [8] (pH 10.0) came to 0.05 min⁻¹. The activity per cells in [9] is 470 nmoles.min^−1 per 10^8 cells; in the series with T. vaginalis, 165 nmoles.min^−1 per 10^8 cells. Besides, the entries for the “activity for the enzyme” value (in series [9] (protein by Lowry method); in the series on T. vaginalis) were 70 nmoles.min^−1.(mg protein)^−1 and 9 nmoles.min^−1.(mg protein)^−1, respectively.

`O=[N+]([O-])c1ccc(O[C@@H]2O[C@H](CO)[C@@H](O)[C@H]2O)nc1` [Example 13, 2-(5-nitropyridyl) β-D-ribofuranoside]: the “substrate quality in words” value on IU-nucleoside hydrolase [7] is on record as “good substrates”; on IU-nucleoside hydrolase [7] (setting [21]) it was “lower activity”; on IAG-nucleoside hydrolase [8], “good substrates”; at IAG-nucleoside hydrolase [8] (setting [21]) it was “substantially greater activity”. Further, at IU-nucleoside hydrolase [7] (At pH 10, 30° C.), the “IU NH kcat” value worked out at 100 s⁻¹. For the same molecule, the Km on IU-nucleoside hydrolase [7] (At pH 10, 30° C., read-out: IU NH Km) was 122 µM. Besides, the “IAG NH rate” value on IAG-nucleoside hydrolase [8] (pH 8.0) and at IAG-nucleoside hydrolase [8] (pH 10.0) was above 100 min⁻¹ in each case. The “hydrolysis in the absence of enzyme” value in series [11] is listed as “hydrolysis observed in the absence of enzyme”.

Regarding `Nc1nc2c(ncn2[C@@H]2O[C@H](CO)[C@@H](O)[C@H]2O)c(=O)[nH]1` [guanosine], in the series on GI-nucleoside hydrolase [12], the Km was 77 µM and the kcat is 231 s⁻¹.

For the molecule `OC[C@H]1O[C@@H](n2cnc3c(O)ncnc32)[C@H](O)[C@@H]1O` [inosine], the kcat at IU-nucleoside hydrolase [13] is 28 s⁻¹; on IAG-nucleoside hydrolase [14], 34 s⁻¹; in series [15] it was 12 s⁻¹. Besides, the Km on IAG-nucleoside hydrolase [14] was 18 µM; in [15] it was 19 µM.

B1: IAG-nucleoside hydrolase (Trypanosoma brucei brucei TREU927) (protein)
chain: T2 sequence (Q57ZL6 1-327)
What is called kcat/Km is the turnover number divided by the Michaelis constant. On to B1, for which, in series [16], the Km was found to be 560 µM, the kcat came to 0.82 s⁻¹ and the kcat/Km was 1500 M⁻¹ s⁻¹. Moreover, in series [17], the Km was determined as 529 µM and the kcat amounted to 0.00317 s⁻¹. For the same molecule, in series [18], the Km is 306 µM and the catalytic constant (kcat) was found to be 12 s⁻¹.
